Literature values in EP1790727A2, “Proteins and nucleic acids encoding same” (Curagen Corporation, priority 2000, dated 2002).
Read-outs that look alike come from different tables or passages of the source.

Legend:
[1] = for increased reepithelialization over saline controls: topically or intraperitoneally
keratinocyte = details: after 4-5 h; as little as 10 pg of Tbeta4
[2] = in vivo, mouse paw
MgATP-actin = MgATP-actin (Homo sapiens, UniProt P68133); details: but not CaATP-actin
neutrophil = details: in vitro

| proteolysis at Gly(46) on subdomain 2, faster when Tbeta(4) is bound (MgATP-actin) | Substance | wound contraction more than controls ([1]; by day 7) | collagen deposition and angiogenesis in the treated wounds ([1]; rat, in vivo) | increased reepithelialization over saline controls ([1]; at 4 d) | increased reepithelialization over saline controls ([1]; at 7 d post-wounding) | migration stimulated over migration with medium alone (keratinocyte) | carrageenin-induced edema [2] | neutrophil chemotaxis (neutrophil) |
| --- | --- | --- | --- | --- | --- | --- | --- | --- |
| > 12 times | thymosin beta4 [Tbeta4] | at least 11% | Increased | 42% | ≤ 61% | 2-3 fold | not |  |
|  | thymosin beta4 sulfoxide |  |  |  |  |  | potent inhibitor | inhibited |
